# Measured values: patent publication US20110171312A1, “MODIFIED THERAPEUTIC PEPTIDES, METHODS OF THEIR PREPARATION AND USE” (Nektar Therapeutics, priority 2008, published 2011)
# “And” between values parts separate entries of the source, which are not always exact repeats. Equal entries are not always repeated. “Also recorded” adds a separate entry of the source. Where two headings read alike, the source gives them in different places.
# What was measured:
# Sprague-Dawley rats [1] = details: for dose adequate to reduce blood glucose to the target (40-60 mg/dl): insulin mass; for Cmin (minimum blood glucose concentration) / Tmin (time to Cmin): 15 μg/animal
# Source text: The first phase established a dose of the compound required to achieve a target blood glucose reduction. This target blood glucose reduction was chosen to be the minimum reduction that is clearly recognizable as different from the resting blood glucose concentration.
# The second phase examined the pharmacokinetics/pharmacodynamics of the molecule when administered to rats at the selected dose over an observation time sufficient for the glucose to return to baseline.
# These experiments were conducted on male adult Sprague-Dawley rats of approximately 0.30-0.40 kg. Animals were obtained pre-cannulated with a jugular vein catheter (JVC) for blood sampling and, in the case of IV administration, and additional femoral vein catheter (FVC).
# Intravenous administration of compounds was made via a femoral catheter in a volume of 300 μl.
# Sample Collection was performed as follows. Blood samples of approximately 0.50 mL were collected from the JVC using a 1 mL syringe at each time point. A new syringe was used for each time point along with precautions to prevent contamination and carry-over.
# The glucose monitoring was conducted as follows. Approximately 20 μL of whole blood was touched to the end of the glucose test strip of 2 Glucometer Elite glucose monitors for a duplicate determination of blood glucose concentrations. If there was a discrepancy of greater than 5 mg/dl, a third reading was taken.
# The sample for compound quantitation in plasma, which served as basis for the PK analysis, was collected and processed as follows. The volume of blood remaining after the glucose measurement (˜480 μL) was anticoagulated with K2 EDTA and centrifuged to recover plasma. The plasma was collected and stored at −80° C. until analysis.
# Sprague-Dawley rats [2] = assay: Glucose depression after intravenous injection of PEG-insulins (Example 23); type: in vivo, rat; details: for glucose depression (in vivo activity) in comparison to regular insulin: 20 μg/animal equivalent insulin mass (FIG. 8a)
# Procedure: The API concentration in the stock solutions was determined post-dosing by UV/VIS spectroscopy. All stock solutions were prepared on the study initiation day.
# Whole blood (0.5 mL) was collected from the jugular vein catheter and placed into serum separator tubes at pre-dose (2 to 0.25 hours prior to dosing) and post-dose time points. After the sample was collected, an equivalent volume of PBS was administered, the catheter lumen was filled with 100 μL of heparinized PBS, and the cannula hub was plugged with a cotton applicator tip soaked in heparinized saline.
# A small amount of whole blood was placed on the glucose test strip for blood glucose determination. The remainder of the sample was separated into serum by centrifugation for 10 minutes at 13,000 rpm. The serum was drawn off into a new Eppendorf tubes. The serum samples were stored at −20° C. on dry ice until shipped, and then stored at −80° C. until analysis.
# The test and control insulin-containing articles were dissolved in saline (pH 7.4) and injected as an IV bolus into Sprague-Dawley rats. Prior to administration, the rats were lightly anesthetized for approximately 3-5 minutes in a Plexiglas induction chamber by inhaled 3.0-5.0% isoflurane mixed with air. The femoral vein catheter (FVC) was used for IV drug administration and the jugular vein catheter (JVC) was used for venous blood sampling to ensure no cross-contamination occurred.
# A 1 mL syringe was fitted into the cannula, and the heparinized phosphate buffered saline solution present in the catheter lumen was removed by drawing back on the syringe plunger until blood filled the hub of the syringe. The heparinized phosphate buffered saline solution and the syringe were discarded and replaced by a new 1 mL syringe containing the appropriate IV dosing volume. The IV dose was then slowly and completely administered to the animal. The cannula was immediately flushed with 300 μL of phosphate buffered saline after dose administration. Blood was withdrawn from an indwelling catheter over a three-hour period. All drug doses refer to equivalent insulin mass delivered to the animals.
# This study was designed to obtain a broad sense of the activity of the compounds rather than serve as an accurate activity measurement.
# rats = assay: Glucose suppression / pulmonary absorption after intratracheal administration of PEG-insulins (Example 23); type: in vivo, rat; details: for glucose suppression profile compared to insulin control: 20-80 μg/animal equivalent insulin mass (FIGS. 8b, 9b, 10-12)
# Source text: In the sections below, an effort is made to compare PEG-insulin preparations with respect to PEG molecular weight, PEGylation site, and chemistry. However, an accurate comparison was not always possible due to the presence of multiple PEG-insulin species in the preparations. Also, it could be that observed differences are due to differences in binding affinity to the receptor rather than absorption per se.
# PEGylated insulins were examined that were all derivatized in positions B1 or B29 using the same PEG active agent (SPA). The actual synthetic routes to generate specific B1 or B29 isomers were different. Data for B1-5000-PEG-Insulin, 750-lot 2-PEG-insulin and 2K-lot 2-PEG-Insulin and 750-lot 5-PEG-insulin; their respective glucose suppression curves are shown in FIGS. 10 and 8b.
# The results are illustrated in FIG. 11.
# The impact of acetylation with PEGylation on insulin absorption through the lungs was evaluated. Acetylated derivatives were produced at different levels of acetylation and were all PEGylated at the same position (B1) with the same MW PEG (750 Da): 750-lot A1- and 750-lot A2-PEG-insulin (details are given in Table 2). The results are illustrated in FIG. 12.
# Sprague-Dawley rats [3] = assay: Dose determination and PK/PD after intratracheal instillation (Example 25); type: in vivo, rat; details: for dose adequate to reach the target nadir glucose suppression: intratracheal instillation, dose ranging leg; for Cmin (minimum blood glucose concentration) / Tmin (time to Cmin): intratracheal, 180, 240, 640 μg/animal for 2K, 3K, 5K (Table 6)
# Procedure: A spectrometric measurement of compound concentration was also made.
# Intratracheal Instillation (IT) was conducted as follows.
# Sample Collection was performed as follows.
# The glucose monitoring was conducted as follows.
# The experimental protocol was modified for the analysis of the acetylated compounds. This resulted from the intent to use LC/MS-MS for the quantitation of compound concentrations in plasma. This analytical technique requires a larger volume of plasma to permit concentration of the sample and achieve the requisite increase in sensitivity. […] The protocol was therefore modified to increase the number of animals by two-fold and split the samples between these two cohorts.
# To explore the data further, the PK profiles after IT doses were deconvoluted using IV PK parameters using the Wagner Nelson deconvolution procedure, to generate the cumulative absorption profile (FIG. 32).
# beagle dogs = details: glucose clamp
# Procedure: The glucose clamp technique involved the continuous infusion of a 50% glucose solution at a rate such that normal serum glucose values were maintained throughout the experiment (e.g., normal range is 80-100 mg/dl).
# Glucagon was also infused to maintain normal serum physiologic concentrations. […] Blood was withdrawn from an indwelling catheter over a 10-hour period.
# Sprague-Dawley rats [4] = system: Sprague-Dawley rats
# Procedure: The liquid formulation was prepared in Dulbecco's phosphate buffered saline (DPBS) for IT administration. […] The dose was administered at a fixed volume of 300 μL; as a result, dosing solutions were prepared within 2 hours of administration by dilution of the stock solution.
# The lowest dose that met the criteria of achieving nadir blood glucose concentrations between approximately 40 and 60 mg/dL in the first 4 hours after compound administration was chosen for the second leg of the study.
# The test system included 19 pre-cannulated (jugular vein catheter (JVC)) adult male fasted (˜15-20 hours) Sprague-Dawley rats (Hilltop Lab Animals, Inc., Scottdale, Pa.). Ten animals weighing between 0.285-0.308 kg were used for the dose-ranging leg and 9 animals weighing between 0.288-0.313 kg were used for the PK/PD leg. Prior to dosing, the rats were lightly anesthetized by inhaled Isoflurane (Abbott Laboratories, Chicago, Ill.). […] Two readings of whole blood glucose concentration (mg/dL) per time point were made using a Glucometer Elite glucose monitor (Bayer Corp., Elkhart, Ind.). […] Pharmacodynamic analysis was performed using Microsoft Office Excel 2003.
# [5] = rats, IT, 80 μg/animal, Group 1
# [6] = rats, IT, 160 μg/animal, Group 1
# [7] = rats, IT, 200 μg/animal, Group 1
# [8] = rats, IT, 270 μg/animal, Group 1
# [9] = rats, IT, 270 μg/animal, Group 2 (PK/PD leg)
# [10] = rats, IT, 381 μg/animal, Group 1
# [11] = rats, IT, 381 μg/animal, Group 1, euthanized at 4 hr
substance,measurement,setting,value
AKZO insulin: reference compound AKZO NOBEL Human Insulin [reference compound],time by which blood glucose was back to baseline,"Sprague-Dawley rats [1]; rats, intravenous (AKZO insulin 1-6 μg/rat; PEG-B1 insulins 15 μg/rat)",≤ 90 min
same,Glucose Tmin,"Sprague-Dawley rats [1]; rats, intravenous, all doses 1-6 μg/rat",15 min
same,dose adequate to reduce blood glucose to the target (40-60 mg/dl),"Sprague-Dawley rats [1]; rats, intravenous",3 μg/rat
"N^αA1,N^εB29-{3-[methoxy(ethoxy)2K]propionyl}insulin [2000-PEG-insulin]",glucose depression (in vivo activity) in comparison to regular insulin,Sprague-Dawley rats [2],deviations were significant
"N^αA1,N^εB29-{3-[methoxy(ethoxy)550]propionyl}insulin [550-lot 1-PEG-insulin]",glucose suppression profile compared to insulin control,rats,much of the glucose suppression activity of insulin is restored
"N^αA1,N^εB29-{3-[methoxy(ethoxy)750]propionyl}insulin [750-lot 3-PEG-insulin]",glucose suppression profile compared to insulin control,rats,prolonged systemic glucose suppression compared to the insulin control
"N^αA1,N^εB29-{3-[methoxy(ethoxy)750]propionyl}insulin [750-lot 4-PEG-insulin]",reduction of insulin activity,Sprague-Dawley rats [2]; 80 μg insulin/animal (FIG. 9a),about 50%
N^αB1-{3-[methoxy(ethoxy)2K]propionyl}insulin [PEG2000-B1 Insulin],Cmin (minimum blood glucose concentration),"Sprague-Dawley rats [1]; rats, intravenous",42 ± 13 mg/dL
same,Tmin (time to Cmin),"Sprague-Dawley rats [1]; rats, intravenous",33 ± 15 min
same,Cmin (minimum blood glucose concentration),"Sprague-Dawley rats [1]; rats, intravenous, listed as PEG2000-B1",42 mg/dL
same,dose adequate to reduce blood glucose to the target (40-60 mg/dl),"Sprague-Dawley rats [1]; rats, intravenous",15 μg/rat
same,dose adequate to reach the target nadir glucose suppression,Sprague-Dawley rats [3],180 μg/rat
same,Cmin (minimum blood glucose concentration),Sprague-Dawley rats [3],38 ± 9 mg/dL
same,Tmin (time to Cmin),Sprague-Dawley rats [3],290 ± 171 min
same,time up to which blood glucose is still suppressed (not back to baseline),"Sprague-Dawley rats [3]; intratracheal, selected dose",≥ 9 h
N^αB1-{3-[methoxy(ethoxy)3K]propionyl}insulin [PEG3000-B1 Insulin],Cmin (minimum blood glucose concentration),"Sprague-Dawley rats [1]; rats, intravenous",36 ± 11 mg/dL
same,Tmin (time to Cmin),"Sprague-Dawley rats [1]; rats, intravenous",24 ± 12 min
same,Cmin (minimum blood glucose concentration),"Sprague-Dawley rats [1]; rats, intravenous, listed as PEG3000-B1",36 mg/dL
same,dose adequate to reduce blood glucose to the target (40-60 mg/dl),"Sprague-Dawley rats [1]; rats, intravenous",15 μg/rat
same,dose adequate to reach the target nadir glucose suppression,Sprague-Dawley rats [3],240 μg/rat
same,Cmin (minimum blood glucose concentration),Sprague-Dawley rats [3],45 ± 18 mg/dL
same,Tmin (time to Cmin),Sprague-Dawley rats [3],170 ± 96 min
same,time up to which blood glucose is still suppressed (not back to baseline),"Sprague-Dawley rats [3]; intratracheal, selected dose",≥ 9 h
N^αB1-{3-[methoxy(ethoxy)5K]propionyl}insulin [PEG5000-B1 Insulin],time glucose remains below euglycemic levels,"rats; 40 μg/animal, no data beyond 6 hours",at least 6 hours
same,glucose suppression profile compared to insulin control,rats,little systemic glucose suppression compared to the insulin control
same,time by which plasma concentration falls below the limit of quantitation,"Sprague-Dawley rats [1]; rat, in vivo, iv",≤ 6 h
same,Cmin (minimum blood glucose concentration),"Sprague-Dawley rats [1]; rats, intravenous",42 ± 9 mg/dL
same,Tmin (time to Cmin),"Sprague-Dawley rats [1]; rats, intravenous",24 ± 8 min
same,Cmin (minimum blood glucose concentration),"Sprague-Dawley rats [1]; rats, intravenous, listed as PEG5000-B1",42 mg/dL
same,dose adequate to reduce blood glucose to the target (40-60 mg/dl),"Sprague-Dawley rats [1]; rats, intravenous",15 μg/rat
same,glucose depression (in vivo activity) in comparison to regular insulin,Sprague-Dawley rats [2],smaller glucose depression in comparison to regular insulin
same,dose adequate to reach the target nadir glucose suppression,Sprague-Dawley rats [3],640 μg/rat
same,Cmin (minimum blood glucose concentration),Sprague-Dawley rats [3],37 ± 3 mg/dL
same,Tmin (time to Cmin),Sprague-Dawley rats [3],480 ± 0 min
same,time to reach Cmin (Tmin),"Sprague-Dawley rats [3]; intratracheal, selected dose",8 h
same,time up to which blood glucose is still suppressed (not back to baseline),"Sprague-Dawley rats [3]; intratracheal, selected dose",≥ 16 h
N^αB1-{3-[methoxy(ethoxy)750]propionyl}insulin [750-lot 2-PEG-insulin],time at which glucose suppression reaches nadir,rats; 80 μg insulin equivalent,6 h
same,time of return of glucose to baseline,rats; 80 μg insulin equivalent,≥ 12 h
same,glucose suppression profile compared to insulin control,rats,prolonged glucose suppression profile; also recorded: prolonged systemic glucose suppression compared to the insulin control
same,glucose depression (in vivo activity) in comparison to regular insulin,Sprague-Dawley rats [2],smaller glucose depression in comparison to regular insulin
N^εB29-{3-[methoxy(ethoxy)2K]propionyl}insulin [B29 2K-2-PEG-insulin],"infused glucose required to maintain basal levels, versus insulin alone",beagle dogs; powder inhalation,required less infused glucose to maintain basal levels
same,duration for which glucose infusion was necessary,beagle dogs; powder inhalation (FIG. 13a),420 min
N^εB29-{3-[methoxy(ethoxy)750]proprionyl}insulin [B29 750-lot 5-PEG-insulin],glucose suppression profile compared to insulin control,rats; listed as B29 750 analog,glucose depression profile similar to the control
"di-N^αA1,N^εB29-(acetyl)-B1-{4-[methoxy(ethoxy)2K]butyryl}insulin [PEG2K-Ald-DiAc Insulin]",hypoglycemia (<20 mg/dL blood glucose concentration),"Sprague-Dawley rats [4]; rat, in vivo",caused hypoglycemia
same,"Cmin, individual animals",Sprague-Dawley rats [4]; [5],78 mg/dL and 85 mg/dL
same,"Cmin, mean",Sprague-Dawley rats [4]; [5],81 mg/dL
same,"Tmin, mean",Sprague-Dawley rats [4]; [5],4.50 h
same,"Cmin, individual animals",Sprague-Dawley rats [4]; [6],86 mg/dL and 82 mg/dL
same,"Cmin, mean",Sprague-Dawley rats [4]; [6],84 mg/dL
same,"Tmin, individual animals",Sprague-Dawley rats [4]; [6],6 h
same,"Tmin, mean",Sprague-Dawley rats [4]; [6],6.00 h
same,"Cmin, individual animals",Sprague-Dawley rats [4]; [7],109 mg/dL and 37 mg/dL
same,"Cmin, mean",Sprague-Dawley rats [4]; [7],73 mg/dL
same,"Tmin, mean",Sprague-Dawley rats [4]; [7],3.50 h
same,animals in which target glucose suppression was not achieved,"Sprague-Dawley rats [4]; rats, IT, 270 μg, PK/PD leg",three out of nine
same,"Cmin, individual animals",Sprague-Dawley rats [4]; [8],31 mg/dL and 35 mg/dL
same,"Cmin, mean",Sprague-Dawley rats [4]; [8],33 mg/dL
same,"Tmin, individual animals",Sprague-Dawley rats [4]; [8],3 h and 8 h
same,"Tmin, mean",Sprague-Dawley rats [4]; [8],5.50 h
same,"Cmin, mean",Sprague-Dawley rats [4]; [9],52 mg/dL and 52 ± 29 mg/dL
same,"Tmin, mean",Sprague-Dawley rats [4]; [9],5.80 h and 5.8 ± 3.5 h
same,"Cmin, mean",Sprague-Dawley rats [4]; [10],20 mg/dL
same,"Tmin, mean",Sprague-Dawley rats [4]; [10],4.00 h
same,"Cmin, individual animals",Sprague-Dawley rats [4]; [11],20 mg/dL and 19^a mg/dL
same,"Tmin, individual animals",Sprague-Dawley rats [4]; [11],4 h
same,pharmacological effect on mean blood glucose versus saline (historic data),"Sprague-Dawley rats [4]; rats, IT, 200-270 μg/animal",does have a pharmacological effect
same,dose selected for the PK/PD leg (nadir blood glucose about 40-60 mg/dL),"Sprague-Dawley rats [4]; rats, IT, dose range finding leg",270 µg
